Source: ChEMBL document CHEMBL5303573, “Mapping human microbiome drug metabolism by gut bacteria and their genes” (Nature, 2019)

Assays:
[1] = roseburia intestinalis, 12 h, 2 µM
Description: The drug is tested on Roseburia intestinalis strain: L1-82 for biotransformation. The drug concentrations were measured before and after a 12-h incubation by liquid-chromatography-coupled mass spectrometry (LC–MS)

[2] = bacteroides thetaiotaomicron, 12 h, 2 µM
Description: The drug is tested on Bacteroides thetaiotaomicron strain: 7330 for biotransformation. The drug concentrations were measured before and after a 12-h incubation by liquid-chromatography-coupled mass spectrometry (LC–MS)

[3] = bacteroides intestinalis, 12 h, 2 µM
Description: The drug is tested on Bacteroides intestinalis strain: DSM17393 for biotransformation. The drug concentrations were measured before and after a 12-h incubation by liquid-chromatography-coupled mass spectrometry (LC–MS)

[4] = bacteroides fragilis, 12 h, 2 µM
Description: The drug is tested on Bacteroides fragilis strain: 3397 (T10) for biotransformation. The drug concentrations were measured before and after a 12-h incubation by liquid-chromatography-coupled mass spectrometry (LC–MS)

[5] = The drug is tested on Bacteroides caccae strain: ATCC43185 for biotransformation. The drug concentrations were measured before and after a 12-h incubation by liquid-chromatography-coupled mass spectrometry (LC–MS); conditions: 2 µM
[6] = The drug is tested on Dorea formicigenerans strain: ATCC27755 for biotransformation. The drug concentrations were measured before and after a 12-h incubation by liquid-chromatography-coupled mass spectrometry (LC–MS); conditions: 2 µM
[7] = bifidobacterium adolescentis, 12 h, 2 µM
Description: The drug is tested on Bifidobacterium adolescentis strain: ATCC 15703 for biotransformation. The drug concentrations were measured before and after a 12-h incubation by liquid-chromatography-coupled mass spectrometry (LC–MS)

[8] = The drug is tested on Eubacterium ventriosum strain: ATCC27560 for biotransformation. The drug concentrations were measured before and after a 12-h incubation by liquid-chromatography-coupled mass spectrometry (LC–MS); format: ADME; parameters: dose 2 uM, timepoint 0 vs 12 hours; conditions: 2 µM
[9] = The drug is tested on Bacteroides coprophilus strain: DSM18228 for biotransformation. The drug concentrations were measured before and after a 12-h incubation by liquid-chromatography-coupled mass spectrometry (LC–MS); conditions: 2 µM
[10] = The drug is tested on Bacteroides finegoldii strain: DSM17565 for biotransformation. The drug concentrations were measured before and after a 12-h incubation by liquid-chromatography-coupled mass spectrometry (LC–MS); conditions: 2 µM
[11] = The drug is tested on Collinsella aerofaciens strain: ATCC25986 for biotransformation. The drug concentrations were measured before and after a 12-h incubation by liquid-chromatography-coupled mass spectrometry (LC–MS); conditions: 2 µM
[12] = The drug is tested on Ruminococcus lactaris strain: ATCC29176 for biotransformation. The drug concentrations were measured before and after a 12-h incubation by liquid-chromatography-coupled mass spectrometry (LC–MS); conditions: 2 µM
[13] = parabacteroides distasonis, 12 h, 2 µM
Description: The drug is tested on Parabacteroides distasonis strain: ATCC8503 for biotransformation. The drug concentrations were measured before and after a 12-h incubation by liquid-chromatography-coupled mass spectrometry (LC–MS)

[14] = The drug is tested on Anaerotruncus colihominis strain: DSM17241 for biotransformation. The drug concentrations were measured before and after a 12-h incubation by liquid-chromatography-coupled mass spectrometry (LC–MS); conditions: 2 µM
[15] = The drug is tested on Ruminococcus torques strain: ATCC27756 for biotransformation. The drug concentrations were measured before and after a 12-h incubation by liquid-chromatography-coupled mass spectrometry (LC–MS); format: ADME; parameters: dose 2 uM, timepoint 0 vs 12 hours; conditions: 2 µM
[16] = The drug is tested on Bifidobacterium breve strain: DSM20213 for biotransformation. The drug concentrations were measured before and after a 12-h incubation by liquid-chromatography-coupled mass spectrometry (LC–MS); conditions: 2 µM
[17] = The drug is tested on Bacteroides sp. WH2 strain: WH2 for biotransformation. The drug concentrations were measured before and after a 12-h incubation by liquid-chromatography-coupled mass spectrometry (LC–MS); conditions: bacteroides sp. wh2, 12 h, 2 µM
[18] = The drug is tested on Bacteroides dorei strain: DSM17855 for biotransformation. The drug concentrations were measured before and after a 12-h incubation by liquid-chromatography-coupled mass spectrometry (LC–MS); conditions: phocaeicola dorei, 2 µM
[19] = akkermansia muciniphila, 12 h, 2 µM
Description: The drug is tested on Akkermansia muciniphila strain: ATCC BAA-835 for biotransformation. The drug concentrations were measured before and after a 12-h incubation by liquid-chromatography-coupled mass spectrometry (LC–MS)

Row | Structure (SMILES) | Bacterial Biotransformation [1] | Bacterial Biotransformation [2] | Bacterial Biotransformation [3] | Bacterial Biotransformation [4] | Bacterial Biotransformation [5] | Bacterial Biotransformation [6] | Bacterial Biotransformation [7] | Bacterial Biotransformation [8] | Bacterial Biotransformation [9] | Bacterial Biotransformation [10] | Bacterial Biotransformation [11] | Bacterial Biotransformation [12] | Bacterial Biotransformation [13] | Bacterial Biotransformation [14] | Bacterial Biotransformation [15] | Bacterial Biotransformation [16] | Bacterial Biotransformation [17] | Bacterial Biotransformation [18] | Bacterial Biotransformation [19]
1 | CN(C)CCc1c[nH]c2ccc(CS(=O)(=O)N3CCCC3)cc12 [ALMOTRIPTAN] | Compound NOT metabolized | Compound NOT metabolized | Compound NOT metabolized | Compound NOT metabolized | Compound NOT metabolized | Compound NOT metabolized | Compound NOT metabolized | Compound NOT metabolized | Compound NOT metabolized | Compound NOT metabolized | Compound NOT metabolized | Compound NOT metabolized | Compound NOT metabolized | Compound NOT metabolized | Compound NOT metabolized | Compound NOT metabolized | Compound NOT metabolized |  | 
2 | C=CCc1ccccc1OCC(O)CNC(C)C (stereo not given) [ALPRENOLOL] | Compound NOT metabolized | Compound NOT metabolized | Compound NOT metabolized | Compound NOT metabolized | Compound NOT metabolized | Compound NOT metabolized | Compound NOT metabolized | Compound NOT metabolized | Compound NOT metabolized | Compound NOT metabolized | Compound NOT metabolized | Compound NOT metabolized |  | Compound NOT metabolized | Compound NOT metabolized | Compound NOT metabolized | Compound NOT metabolized | Compound NOT metabolized | 
3 | O=C1CN2Cc3c(ccc(Cl)c3Cl)N=C2N1 [ANAGRELIDE] |  | Compound NOT metabolized | Compound NOT metabolized | Compound NOT metabolized |  | Compound NOT metabolized | Compound NOT metabolized | Compound NOT metabolized | Compound NOT metabolized | Compound NOT metabolized | Compound NOT metabolized | Compound NOT metabolized | Compound NOT metabolized | Compound NOT metabolized | Compound NOT metabolized | Compound NOT metabolized | Compound NOT metabolized | Compound metabolized | 
4 | CC(C)(C#N)c1cc(Cn2cncn2)cc(C(C)(C)C#N)c1 [ANASTROZOLE] | Compound NOT metabolized | Compound metabolized | Compound NOT metabolized | Compound metabolized | Compound metabolized | Compound NOT metabolized | Compound NOT metabolized | Compound NOT metabolized | Compound metabolized | Compound NOT metabolized | Compound NOT metabolized | Compound NOT metabolized |  | Compound NOT metabolized | Compound NOT metabolized | Compound NOT metabolized | Compound NOT metabolized |  | Compound metabolized
5 | NS(=O)(=O)c1cc2c(cc1Cl)N=C(CSCc1ccccc1)NS2(=O)=O [BENZTHIAZIDE] | Compound NOT metabolized | Compound NOT metabolized | Compound NOT metabolized | Compound NOT metabolized | Compound NOT metabolized | Compound NOT metabolized | Compound NOT metabolized |  | Compound NOT metabolized |  | Compound NOT metabolized |  | Compound NOT metabolized | Compound NOT metabolized |  | Compound NOT metabolized | Compound NOT metabolized |  | Compound NOT metabolized
6 | CC(C)NCC(O)COc1ccc(COCCOC(C)C)cc1.CC(C)NCC(O)COc1ccc(COCCOC(C)C)cc1.O=C(O)/C=C/C(=O)O (stereo not given) [BISOPROLOL FUMARATE] | Compound NOT metabolized | Compound NOT metabolized | Compound NOT metabolized | Compound NOT metabolized | Compound NOT metabolized | Compound NOT metabolized | Compound NOT metabolized | Compound NOT metabolized | Compound NOT metabolized | Compound NOT metabolized | Compound NOT metabolized | Compound NOT metabolized |  | Compound NOT metabolized | Compound NOT metabolized | Compound NOT metabolized | Compound NOT metabolized | Compound NOT metabolized | 

Further lines, results first:

Row | Bacterial Biotransformation [1] | Bacterial Biotransformation [2] | Bacterial Biotransformation [3] | Bacterial Biotransformation [4] | Bacterial Biotransformation [5] | Bacterial Biotransformation [6] | Bacterial Biotransformation [7] | Bacterial Biotransformation [8] | Bacterial Biotransformation [9] | Bacterial Biotransformation [10] | Bacterial Biotransformation [11] | Bacterial Biotransformation [12] | Bacterial Biotransformation [13] | Bacterial Biotransformation [14] | Bacterial Biotransformation [15] | Bacterial Biotransformation [16] | Bacterial Biotransformation [17] | Bacterial Biotransformation [18] | Bacterial Biotransformation [19] | Structure (SMILES)
7 | Compound NOT metabolized | Compound NOT metabolized | Compound NOT metabolized | Compound NOT metabolized | Compound NOT metabolized | Compound NOT metabolized | Compound NOT metabolized | Compound NOT metabolized |  | Compound NOT metabolized | Compound NOT metabolized | Compound NOT metabolized | Compound NOT metabolized |  | Compound NOT metabolized | Compound NOT metabolized | Compound NOT metabolized |  |  | Clc1ccc(Cn2c(CN3CCCC3)nc3ccccc32)cc1 [CLEMIZOLE]
8 | Compound metabolized | Compound metabolized | Compound metabolized | Compound metabolized | Compound metabolized | Compound metabolized |  | Compound metabolized | Compound NOT metabolized | Compound metabolized | Compound metabolized | Compound metabolized | Compound metabolized | Compound metabolized | Compound metabolized | Compound metabolized | Compound metabolized | Compound metabolized |  | Nc1ccc(/N=N/c2ccccc2)c(N)n1 [PHENAZOPYRIDINE]
9 | Compound NOT metabolized |  | Compound NOT metabolized | Compound metabolized | Compound NOT metabolized | Compound NOT metabolized | Compound NOT metabolized | Compound NOT metabolized |  | Compound NOT metabolized | Compound NOT metabolized | Compound NOT metabolized | Compound metabolized |  | Compound NOT metabolized | Compound metabolized |  | Compound metabolized | Compound NOT metabolized | CCOC(=O)[C@H](CCc1ccccc1)N[C@@H](C)C(=O)N1[C@H](C(=O)O)C[C@H]2CCCC[C@@H]21 [TRANDOLAPRIL]
